Experiment in all cases: SIRT1 inhibition assay, OAcADPr mass spectrometry
Holding throughout (type): biochemical

One assay deals with T1, full-length hSIRT1 T219A (Homo sapiens, UniProt Q96EB6, T219A).
T1 construct: The following point mutants of full-length hSIRT1 were generated; His6 (C); made in house
T1 sequence (Q96EB6 1-747 T219A): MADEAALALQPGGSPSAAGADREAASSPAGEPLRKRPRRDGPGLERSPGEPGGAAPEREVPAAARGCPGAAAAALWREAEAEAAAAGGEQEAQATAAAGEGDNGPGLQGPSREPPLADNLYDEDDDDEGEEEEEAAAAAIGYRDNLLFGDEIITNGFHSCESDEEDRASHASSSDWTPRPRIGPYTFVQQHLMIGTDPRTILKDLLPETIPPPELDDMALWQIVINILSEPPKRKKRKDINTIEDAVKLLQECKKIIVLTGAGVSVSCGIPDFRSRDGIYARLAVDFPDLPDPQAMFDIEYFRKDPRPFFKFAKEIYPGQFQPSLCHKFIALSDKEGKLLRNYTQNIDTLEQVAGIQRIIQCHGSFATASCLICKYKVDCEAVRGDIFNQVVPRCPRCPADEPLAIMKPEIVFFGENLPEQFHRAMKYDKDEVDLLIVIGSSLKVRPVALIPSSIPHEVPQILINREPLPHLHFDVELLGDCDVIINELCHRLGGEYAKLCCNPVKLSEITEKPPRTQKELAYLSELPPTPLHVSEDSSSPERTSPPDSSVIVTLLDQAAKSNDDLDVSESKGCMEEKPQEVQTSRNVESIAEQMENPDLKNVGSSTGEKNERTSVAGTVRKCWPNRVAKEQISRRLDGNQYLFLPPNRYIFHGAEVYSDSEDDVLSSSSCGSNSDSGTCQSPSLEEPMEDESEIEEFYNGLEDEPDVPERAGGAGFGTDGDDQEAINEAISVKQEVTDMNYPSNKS

The target in assay [1] is T2, full-length hSIRT1 wild-type (Homo sapiens, UniProt Q96EB6).
T2 construct: Full-length human SIRT1 (hSIRT1) proteins were expressed with a C-terminal His6 tag; His6 (C); made in house
T2 sequence (Q96EB6 1-747): T1 sequence (Q96EB6 1-747 T219A) with A219T

The target in a further assay is T3, full-length hSIRT1 I227A (Homo sapiens, UniProt Q96EB6, I227A).
T3 construct: The following point mutants of full-length hSIRT1 were generated; His6 (C); made in house
T3 sequence (Q96EB6 1-747 I227A): T1 sequence (Q96EB6 1-747 T219A) with A219T, I227A

The term IC50 denotes the concentration that gives 50% inhibition. The low end stands for greater potency, the high end for weaker potency.

Residue numbers refer to the chain shown, from its start. Structures can show the parent of a compound that is named as a salt.

For the compound `CCCC[C@H](NC(=O)[C@H](CC(C)C)NC(=O)[C@H](CCCCNC(=O)C(F)(F)F)NC(=O)[C@H](CCCCN)NC(=O)[C@H](Cc1c[nH]cn1)NC(=O)[C@H](CCCNC(=N)N)NC(C)=O)C(=O)N[C@@H](Cc1ccccc1)C(N)=O` [TFA-p53 7-mer, Ac-RHK-K^TFA-L-Nle-F-NH2], the values for the IC50 (on full-length hSIRT1 T219A; in assay [1]; at full-length hSIRT1 I227A) were 490 ± 20 nM, 680 ± 70 nM and 940 ± 60 nM, respectively.

(Values after patent US9765075B2, “Substituted bridged urea analogs as sirtuin modulators” (GLAXOSMITHKLINE LLC, priority 2013, dated 2017).)
